The record followed here is patent US20110021575A1, “PENETRATION ENHANCERS FOR INSECTICIDAL AGENTS” (priority 2006, published 2011).

A short description of the series: Penetration test: penetration of active substance through enzymatically isolated apple leaf cuticles in diffusion cells. Type of series: in vitro ADME, apple trees of the Golden Delicious variety. The settings on record: cuticular penetration of imidacloprid, at 20° C., 60%, imidacloprid 0.3 g/l (ai alone) or 0.2 g/l (with surfactant), mean values of 5-8 repetitions.

Procedure: In this test, the penetration of active substances through enzymatically isolated cuticles of apple tree leaves was measured.
Leaves which were cut off in the stage of full development of apple trees of the Golden Delicious variety were used. The isolation of the cuticles was effected in a manner such that • first leaf discs marked on the underside with dye and punched out were filled by means of vacuum infiltration with a pectinase solution (0.2 to 2% strength) buffered to a pH between 3 and 4, • sodium azide was then added and • the leaf discs thus treated were allowed to stand until disintegration of the original leaf structure and detachment of the noncellular cuticle.
Thereafter, only those cuticles of the upper sides of the leaves which were free of staltoa and hairs were further used. They were washed several times alternately with water and a buffer solution at pH 7. The clean cuticles obtained were finally drawn onto small Teflon plates and smoothed and dried with a gentle air jet.
In the next step, the cuticle membranes thus obtained were placed in stainless steel diffusion cells (=transport chambers) for membrane transport investigations. For this purpose, the cuticles were placed by means of forceps centrally on the silicone grease-coated edges of the diffusion cells and closed with a likewise greased ring. The arrangement was chosen so that the morphological outside of the cuticles faced outwards, i.e. towards the air, while the original inside faced the interior of the diffusion cell. The diffusion cells were filled with water or with a mixture of water and solvent. […]
After the application of the spray liquors, in each case the water was allowed to evaporate, and in each case the chambers were then turned around and were placed in thermostated trays, air having a defined temperature and atmospheric humidity being blown onto the outside of the cuticle. […] The active substance penetration was measured with radioactively marked active substance.

In the case of `O=[N+]([O-])NC1=NCCN1Cc1ccc(Cl)nc1` [Imidacloprid (ai), imidacloprid], the “Penetration after 5 hours” value (after 5 hours) turned out to be 0.1%. Further, the “Penetration after 1 day” value (after 1 day) is recorded as 0.3%. Moreover, for the setting “after 2 days”, the “Penetration after 2 days” value came to 0.5%.
